Results taken from US7166440B2, “2,4,5-trichlorophenoxyalkyl carboxylic acid and a method for determining dioxins using the same” (priority 2003, dated 2007).

How the values were obtained:
[1] = tested on: monoclonal antibody of clone C-3 (anti-dioxin antibody); assay: Competitive EIA: inhibition of binding of clone C-3 monoclonal antibody to solid-phase antigen by free dioxin; design: species or system mouse
Method: (§1) Using various monoclonal antibodies, the specificity of the monoclonal antibodies to dioxin isomers was examined. The monoclonal antibodies were prepared in the following manner. An antibody-producing cell was injected into the abdominal cavity of a pristane-pretreated mouse. Th ascites fluid in the abdominal cavity caused by the growth of the cells was collected, and then a monoclonal antibody was purified by affinity chromatography using a protein G-Sepharose (manufactured by BIO-RAD Co.) as a carrier. Using three antibody-producing clones C-1, C-2 and C-3, respective monoclonal antibodies were prepared. The clones C-1, C-2 and C-3 produce monoclonal antibodies with respect to dibenzodioxin having chlorine atom at the 2-, 3-, 7-, and 8-positions.
(§2) To evaluate the specificity of the monoclonal antibody was performed according to the following principles. A solid-phase antigen (competitor) and a free dioxin (ligand) are allowed to compete with each other with respect to a free monoclonal antibody (anti-dioxin antibody). If the reactivity of the monoclonal antibody and the dioxin is higher than that of the monoclonal antibody and the solid-phase antigen, the binding of the monoclonal antibody to the solid-phase antigen is reduced. This reduction of the binding of the monoclonal antibody to the solid-phase antigen can be measured by color development method. This phenomenon can be applied to evaluate the specificity.
(§3) First, the immune antigen or the compound (IIa) conjugated with BSA that was produced in Example 2 was diluted with PBS to 1 μg/ml, and divided into each well of a 96-well assay plate (manufactured by Costar, Cat. No. 3590) in an amount of 50 μl. Then, the plate was sealed and allowed to stand at room temperature for one hour. Then, each well was washed with PBS containing 0.005% of Tween 20 three times. Next, 300 μl of Block Ace (manufactured by Snow Brand Milk Products Co., Ltd.) diluted with distilled water to a concentration of 25% was supplied to each well, and the plate was sealed and allowed to stand at 37° C. for two hours. Each well was washed with PBS containing 0.005% of Tween 20 three times. Then, a 25 μl of the dioxin compound solution of a final concentration of 5×10^−7 M was added to each well. The dioxin compound solution was prepared by diluting the dioxin with a dilution solvent comprising 20% DMSO and 0.01% of Triton X100. As controls, a dilution solvent in an amount of 25 μl was added to each well. Immediately after the addition of the dioxin compound solution or the dilution solvent, 25 μl of an antibody solution diluted with PBS containing 1 mg/ml of BSA was added to each well. The assay plate was stand at room temperature for one hour with slightly shaking.
(§4) After washing with PBS containing 0.005% of Tween 20 three times, 50 μl of the diluted HRP-labeled goat anti-mouse IgG (H+L) antibody (produced by affinity purification) was added to each well. The diluted HRP-labeled antibody was prepared by diluting the purchased HRP-labeled antibody to 2000 times as much with 10% Block Ace. The plate was allowed to stand at room temperature for one hour, followed by washing with PBS containing 0.005% of Tween 20 three times. Then, 50 μl of a HRP substrate, TMB (manufactured by KPL Co., Ltd.), was added to each well and allowed to stand at room temperature for 5 to 10 min. Then, 5 μl of a 1 M phosphate solution was added to each well, and the absorbance at a wavelength of 455 nm (655 nm for the reference) was measured with a spectrophotometer for a microtiter. The reactivity was evaluated by obtaining the absorbance (B0) at the time when the dioxin compound is not added, which is a control (diluent) and the absorbance (B) at the time when the dioxin compound is added. The inhibition rate was measured based on the following equation. Inhibition rate={(B0−B)/B0}×100 (%)
(§5) Evaluation was such that the larger this inhibition rate is, the higher the specificity of the anti-dioxin antibody to the dioxin compound.

[2] = tested on: monoclonal antibody of clone C-2 (anti-dioxin antibody); assay: Competitive EIA: inhibition of binding of clone C-2 monoclonal antibody to solid-phase antigen by free dioxin; design: species or system mouse
Method: as §1, §2, §3, §4, §5

[3] = toxicity equivalent factor of the dioxins used; cited from earlier work
[4] = tested on: monoclonal antibody of clone C-1 (anti-dioxin antibody); assay: Competitive EIA: inhibition of binding of clone C-1 monoclonal antibody to solid-phase antigen by free dioxin; design: species or system mouse
Method: as §1, §2, §3, §4, §5

[5] = tested on: anti-dioxin antibody (monoclonal antibody) to 1,2,3,7,8-PeCDF; type: binding, mouse; details: Table 2, dioxins having TEF; solid-phase antigen (IIa); antibody to 1,2,3,7,8-PeCDF
Method: as §3, §4
An anti-dioxin antibody (monoclonal antibody) to 1,2,3,7,8-PeCDF is used as an antibody. A haptenized product of a solid-phase antigen 6-(2,4,5-trichlorophenoxy) hexanoic acid amide derivative (IIa) and the chlorine-containing organic compounds in Tables 2 and 3 were allowed to compete with each other to this anti-dioxin antibody so that a competitive reaction was effected in the same manner as in Example 3. Then, the cross-reactivity was examined.

[6] = solid-phase antigen * (haptenized product of 6-(2,4,5-trichlorophenoxy) hexanoic acid amide derivative IIa), dioxin compound 5×10^−7 M
[7] = solid-phase antigen immunogen 3, dioxin compound final concentration 5×10^−7 M
[8] = solid-phase antigen immunogen 2, dioxin compound final concentration 5×10^−7 M
[9] = solid-phase antigen immunogen 1, dioxin compound final concentration 5×10^−7 M

Structure (SMILES)	Inhibition rate [1, 6]	Inhibition rate [1, 7]	Inhibition rate [2, 6]	Inhibition rate [2, 8]	TEF value [3]	Inhibition rate [4, 6]	Inhibition rate [4, 9]	cross reaction [5]
Clc1cc2c(c(Cl)c1Cl)Oc1cc(Cl)c(Cl)c(Cl)c1O2 [1,2,3,6,7,8-HxCDD]	6.7%	3.9%	2.2%	−6.2%	0.1	−0.3%	3.1%	18.0%
Clc1cc2oc3c(Cl)c(Cl)c(Cl)c(Cl)c3c2cc1Cl [1,2,3,4,7,8-HxCDF]	0.8%	4.9%	−11.2%	5.2%	0.1	−1.5%	3.3%	45.9%
Clc1cc2oc3c(Cl)c(Cl)c(Cl)c(Cl)c3c2c(Cl)c1Cl [1,2,3,4,7,8,9-HpCDF]	11.3%	6.1%	7.5%	27.7%	0.01	7.1%	5.8%	28.7%
Clc1cc2c(cc1Cl)Oc1c(Cl)c(Cl)c(Cl)c(Cl)c1O2 [1,2,3,4,7,8-HxCDD]	−2.3%	−2.5%	19.1%	−9.4%	0.1	14.1%	−1.4%	24.8%
